From patent publication US6710877B2, “Apparatus and methods for determining biomolecular interactions” (Corning Incorporated, priority 2001, dated 2004)
Where two headings read alike, the source gives them in different places.

Columns and labels:
Assay type in all cases: binding
[1] = target: T1, streptavidin (Streptomyces avidinii, UniProt P22629); test: Dual compartment absorbance sensor: leaching of ligand from agarose gel containing streptavidin; conditions: for effective binding constant k from fit of equation 3 to concentration-time traces: 2.5% agarose gel, streptavidin, 8.4×10^−4 M ligand, 0.1×SSC buffer, 220 nm absorbance; for coefficient1 of fitting function f=coefficient1*Error_Function(coefficient2*time^1/2) / coefficient2 of fitting function f=coefficient1*Error_Function(coefficient2*time^1/2): average of traces, Marquardt-Levenberg fit
T1 construct: purchased Sigma Corp., St. Louis, Mo; B3763
T1 sequence (P22629 25-183, species assumed): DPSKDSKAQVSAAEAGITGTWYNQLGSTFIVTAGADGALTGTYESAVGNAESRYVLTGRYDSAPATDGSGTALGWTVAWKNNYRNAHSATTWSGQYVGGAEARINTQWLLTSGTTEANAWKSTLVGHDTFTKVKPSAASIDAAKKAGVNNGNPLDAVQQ

[2] = system: anti-biotin; test: Dual compartment absorbance sensor: leaching of ligand from agarose gel containing anti-biotin; conditions: anti-biotin instead of streptavidin, otherwise as Example 2
[3] = target: T1, streptavidin; test: Three slot diffraction sensor: leaching of ligand out of the central sensing volume

| Compound | effective binding constant k from fit of equation 3 to concentration-time traces [1] | coefficient1 of fitting function f=coefficient1*Error_Function(coefficient2*time^1/2) [1] | coefficient2 of fitting function f=coefficient1*Error_Function(coefficient2*time^1/2) [1] | factor by which binding constant k of biotin exceeds that of glutamine ([1]; biotin versus glutamine curve-fits) | binding affinities with anti-biotin in upstream compartment (FIGS. 7A and 7B) [2] | leaching out of central sensing volume, peak-to-peak intensity difference versus time (FIG. 10) [3] | leaching out of central sensing volume, peak-to-peak intensity difference versus time (FIG. 10) ([3]; three samples each, 1×TBE buffer, qualitative) |
| --- | --- | --- | --- | --- | --- | --- | --- |
| O=C(O)CCCC[C@@H]1SC[C@@H]2NC(=O)N[C@@H]21 [biotin] | 0.01186 min⁻¹ | ~1.5 mM | 0.1089 | 4 | indistinguishable | more activity in the biotin traces |  |
| NC(=O)CC[C@H](N)C(=O)O [glutamine] | 0.00325 min⁻¹ | ~1.6 mM | 0.0570 |  | indistinguishable |  | much slower than biotin leaching |
